# Reference: patent US11819533B2, “Compositions and methods for the treatment of fungal infections” (Cidara Therapeutics, Inc., priority 2017, dated 2023)
# Starred links: 1 amine or outer side, 2 acyl side, 3 side chain; linkers in the order of their positions; H or OH if unused. Positions of bridges follow the written chain, without caps; N, C: chain ends. Non-standard residues stand in square brackets, D forms with d. Residues, ends and D or L forms follow the SMILES beside them. *: point of attachment. Orn(4R-OH,5R-OCH2CH2NMe3+) = C[N+](C)(C)CCO[C@@H](N[*:3])[C@H](O)C[C@H](N[*:1])C(=O)[*:2]; pTerphenylCO(4''-OnC5H11) = CCCCCOc1ccc(-c2ccc(-c3ccc(C(=O)*)cc3)cc2)cc1; hTyr(3S-OH,4S-OH) = N[C@H](C(=O)O)[C@H](O)[C@@H](O)c1ccc(O)cc1; Pro(3S-OH,4S-Me) = C[C@H]1CN[C@H](C(=O)O)[C@H]1O; Hyp = O=C(O)[C@@H]1C[C@@H](O)CN1
# Columns and labels:
# [1] = PBS drop test of CD101 IV formulations (Example 4); type: physicochemical; conditions: 2 mg/mL in 0.50% Tween 80, 0.76% mannitol, 0.125% sodium lactate in 3.5% dextrose solution, pH ~5.5; 0.25 mL into 1 mL PBS
# Protocol: Solubility of CD101-containing formulations with different percentages of Tween 80 (also referred to as polysorbate 80) was evaluated in a “PBS drop test.” This involved preparing a known concentration of CD101 in a formulation and injecting the formulation into PBS to visually examine for precipitation. This test was used to assess if a CD101-containing formulation would remain soluble in blood during IV infusions.
# (1) 1.25% Tween 80, 5% mannitol, 0.3% glacial acetic acid, pH ˜4.5
# (2) 0.50% Tween 80, 0.76% mannitol, 0.125% sodium lactate in 3.5% dextrose solution, pH ˜5.5
# Different concentrations of CD101 acetate were prepared in vehicles (1) and (2) and tested for solubility in the PBS drop test.
# Add dropwise the formulated solution into PBS solution (1:4 dilution). Visually observe the resulting solution upon addition for any precipitation.
# [2] = PBS buffer drop test (Example 3); type: physicochemical
# Protocol: These solutions were tested for solubility in the PBS drop test, which involved adding the solution dropwise into PBS solution (1:4.3 dilution) and visually observing the resulting solution for any precipitation. PBS buffer serves as a surrogate for plasma, and the PBS drop test is used to evaluate the potential for insolubility as the drug enters the bloodstream at the injection site.
smiles,measurement,setting,value
"CCCCCOc1ccc(-c2ccc(-c3ccc(C(=O)N[C@H]4C[C@@H](O)[C@@H](OCC[N+](C)(C)C)NC(=O)[C@@H]5[C@@H](O)[C@@H](C)CN5C(=O)[C@H]([C@@H](C)O)NC(=O)[C@H]([C@H](O)[C@@H](O)c5ccc(O)cc5)NC(=O)[C@@H]5C[C@@H](O)CN5C(=O)[C@H]([C@@H](C)O)NC4=O)cc3)cc2)cc1 [CD101 acetate] ({pTerphenylCO(4''-OnC5H11)}-[Orn(4R-OH,5R-OCH2CH2NMe3+)]T[Hyp][hTyr(3S-OH,4S-OH)]T[Pro(3S-OH,4S-Me)]; lactam 1-C)",Time the formulated solution remained soluble in PBS,[1],at least 1 hour
same,Appearance upon PBS drop test,"[2]; 0.3% acetic acid, 1.25% Tween 80 and 5% mannitol, pH 4.5, 6.0 mg/mL, 1.4 mg/mL in PBS",Clear
same,Appearance upon PBS drop test,"[2]; 0.3% acetic acid, 2.5% Tween 80 and 5% mannitol, pH 4.5, 4 mg/mL, 0.92 mg/mL in PBS",Clear
same,Appearance upon PBS drop test,"[2]; 0.3% acetic acid, 2.5% Tween 80 and 5% mannitol, pH 4.5, 6.0 mg/mL, 1.4 mg/mL in PBS",Clear
same,Appearance upon PBS drop test,"[2]; 0.3% acetic acid, 2.5% Tween 80 and 5% mannitol, pH 4.5, 8.0 mg/mL, 1.8 mg/mL in PBS",Clear
same,Appearance upon PBS drop test,"[2]; 0.9% Saline, pH 5.3, 2.8% Tween 80, 4 mg/mL",Clear
same,Appearance upon PBS drop test,"[2]; 0.9% Saline, pH 6.6, 2.5% Tween 80, 4 mg/mL",Clear
same,Appearance upon PBS drop test,"[2]; 0.9% Saline, pH 7.2, 1.75% Tween 80, 4 mg/mL",Clear
same,Appearance upon PBS drop test,"[2]; 0.9% Saline, pH 7.2, 2.5% Tween 80, 4 mg/mL",Clear
same,Appearance upon PBS drop test,"[2]; 0.9% Saline, reverse addition (CD101 acetate and Tween 80 mixed first, then saline added), 1.75% Tween 80, 4 mg/mL",Clear
same,Appearance upon PBS drop test,"[2]; 5% Mannitol/25 mM Na Acetate, pH 4.63, 2.5% Tween 80, 4 mg/mL",Clear
same,Appearance upon PBS drop test,"[2]; 5% Mannitol/30 mM Na Lactate, pH 5.45, 2.5% Tween 80, 4 mg/mL",Clear
same,Appearance upon PBS drop test,"[2]; 5% Mannitol/0.3% Acetic Acid, pH 3.54, 2.5% Tween 80, 4 mg/mL",Clear
same,Appearance upon PBS drop test,"[2]; PBS buffer pH 7.4, pH 7.13, 1.75% Tween 80, 4 mg/mL",Clear
